Test results: US20020137209A1, “Methods of dissociating nongenotropic from genotropic activity of steroid receptors” (priority 2000, published 2002)
Ends that are not written are not given here.

Legend:
[1] = test system: ERK1/2; test: ERK phosphorylation in MLO-Y4 cells (Western blot); assay type: cell-based; settings: for effect of inhibitor on induction of ERK phosphorylation by E2 or DHT: inhibitor 25 min, then 5 min E2 or DHT
Experimental: Western blot analysis. The phosphorylation status of ERK1/2 was analyzed by immunoblotting using a mouse monoclonal antibody recognizing tyrosine phosphorylated ERK1/2, or a rabbit polyclonal antibody recognizing total ERK1/2, followed by incubation with either an anti-mouse or an anti-rabbit antibody conjugated with horseradish peroxidase (Santa Cruz Biotechnology).

[2] = molecular target: T1, AR (Homo sapiens, UniProt P10275); test: Etoposide-induced apoptosis in HeLa cells transfected with AR
T1 sequence (P10275 1-920): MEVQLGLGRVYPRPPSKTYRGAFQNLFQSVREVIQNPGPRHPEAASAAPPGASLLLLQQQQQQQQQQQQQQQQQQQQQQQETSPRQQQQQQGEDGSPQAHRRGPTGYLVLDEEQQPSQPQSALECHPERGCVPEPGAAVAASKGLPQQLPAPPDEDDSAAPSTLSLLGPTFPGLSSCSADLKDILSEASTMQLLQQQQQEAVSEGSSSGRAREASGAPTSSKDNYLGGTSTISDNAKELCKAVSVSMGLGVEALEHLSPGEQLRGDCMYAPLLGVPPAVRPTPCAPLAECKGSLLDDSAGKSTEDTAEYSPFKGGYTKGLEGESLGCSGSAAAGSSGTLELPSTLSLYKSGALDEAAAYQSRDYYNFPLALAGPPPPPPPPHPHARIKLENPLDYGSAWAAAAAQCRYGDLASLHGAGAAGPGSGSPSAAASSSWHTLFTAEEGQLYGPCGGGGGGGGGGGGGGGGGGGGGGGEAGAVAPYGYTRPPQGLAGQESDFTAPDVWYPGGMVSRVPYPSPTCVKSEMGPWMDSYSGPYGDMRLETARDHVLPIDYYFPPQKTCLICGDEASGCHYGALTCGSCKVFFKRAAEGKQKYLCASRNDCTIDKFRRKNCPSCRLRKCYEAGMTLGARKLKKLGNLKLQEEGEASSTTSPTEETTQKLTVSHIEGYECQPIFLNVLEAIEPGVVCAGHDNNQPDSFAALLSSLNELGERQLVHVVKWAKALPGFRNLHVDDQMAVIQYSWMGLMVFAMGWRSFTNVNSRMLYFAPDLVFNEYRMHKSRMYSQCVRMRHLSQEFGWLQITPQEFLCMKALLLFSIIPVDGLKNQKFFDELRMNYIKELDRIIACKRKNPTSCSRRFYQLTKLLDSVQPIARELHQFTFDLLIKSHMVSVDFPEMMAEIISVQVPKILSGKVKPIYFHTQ

[3] = test system: calvaria-derived murine osteoblastic cells; test: Apoptosis of calvaria-derived osteoblastic cells (trypan blue)
[4] = test system: osteocytic cell line MLO-Y4; test: Apoptosis of MLO-Y4 osteocytic cells (trypan blue); assay type: cell-based
[5] = test system: embryonic fibroblasts derived from Src−/− mice; test: Apoptosis in embryonic fibroblasts from Src−/− mice; assay type: cell-based; settings: ER- and AR-expressing, also lack yes and Fyn
Experimental: Cell lysates were obtained and proteins were analyzed by Western blot analysis using anti-ERK1/2 or anti-phospho-ERK1/2 (p-ERK1/2) antibodies. […] After 30 min, etoposide was added and apoptosis was assayed 6 hours later as in FIG. 1B. […] RT-PCR was performed as described in the experimental procedures. C-E. HeLa cells were transfected with Nuc-EGFP and with expression vectors encoding the full length ERα or its E domain, or the AR alone (C, left panel) or together with a dn MEK (C, right panel); a Src mutant lacking the kinase activity (Src K^−), a Src mutant lacking the SH2 domain (Src ΔSH2), or a Src mutant lacking the SH3 domain (Src ΔSH3) (D); or with ERα together with wt Shc, or the dn Shc mutants Y239F/Y240F/Y317F (Shc FFF), Y317F (Shc YYF) or Y239F/Y240F (Shc FFY) (E). Bars represent means±SD of triplicate determinations. *p<0.05 versus cells cultured without steroids, by ANOVA.
Quantification of apoptotic cells in vitro. Apoptotic cells were quantified either by trypan blue staining or by direct visualization of changes in nuclear morphology (in the case of transfected HeLa cells), as previously described (Plotkin,L. et al. (1999). J.
RT-PCR analysis of the ERs and AR in embryonic fibroblasts. […]

[6] = molecular target: T2, ERβ (Homo sapiens, UniProt Q92731); test: Etoposide-induced apoptosis in HeLa cells transfected with ERβ
[7] = test system: HeLa cells transfected with the vector without receptor (empty vector, ev); test: Etoposide-induced apoptosis in HeLa cells transfected with empty vector; settings: 10^−12M to 10^−8 M
[8] = molecular target: T2, ERβ; test: ERE-luc transcription in HeLa cells transfected with ERβ; assay type: cell-based; parameters: expressed in transfected cells; host or cells: HeLa; settings: ERβ carrying HeLa cells, 10^−8 M E2
Source text: (§1) A. HeLa cells were transiently transfected with the ERα expression vector alone or together with a vector carrying a fusion of the α-II peptide with the GAL4 DNA binding domain driven by the SV40 promoter. In addition, cells were transfected with ERE-luc or IL-6-luc for the transcription studies; or with EGFP-nuc for the apoptosis experiments. […] B. HeLa cells were transfected with ERα or ERβ alone or together with expression vectors carrying 2X293 or 2XF6 peptides. […] C. HeLa cells were transfected with a vector carrying the GRIP peptide alone or together with ERα.
(§2) DNA constructs. […] Bio. […] The sequence for peptide αII is […] (SEQ ID NO.: 1). […] (SEQ ID NO.: 3). The sequence for GRIP is […] […] […] (SEQ ID NO.: 4). […] The forward primer contained the restriction site for SalI and the ERα Kozak sequence and the reverse primer contained the BamH1 restriction site. Amplified PCR products were subcloned into the SalI/BamH1 restriction site of pCMV.
(§3) Transient transfections. HeLa cells were plated at 5×10^4/cm^2 and after 16-24 hours were transfected with a total amount of 3 μg of DNA using Lipofectamine (Life Technologies Inc). Following a 4-6 hours of incubation, the transfection mix was replaced with fresh medium containing 10% charcoal-stripped serum and treatments were initiated.

[9] = molecular target: T2, ERβ; test: IL-6-luc transcription in HeLa cells transfected with ERβ; assay type: cell-based; parameters: expressed in transfected cells; host or cells: HeLa; settings: ERβ carrying HeLa cells, 10^−8 M E2
Source text: as §1, §2, §3

[10] = molecular target: T3, ERα (Homo sapiens, UniProt P03372); test: Etoposide-induced apoptosis in HeLa cells transfected with ERα; settings: peptide co-transfected, 10^−8 M E2
T3 sequence (P03372 1-595): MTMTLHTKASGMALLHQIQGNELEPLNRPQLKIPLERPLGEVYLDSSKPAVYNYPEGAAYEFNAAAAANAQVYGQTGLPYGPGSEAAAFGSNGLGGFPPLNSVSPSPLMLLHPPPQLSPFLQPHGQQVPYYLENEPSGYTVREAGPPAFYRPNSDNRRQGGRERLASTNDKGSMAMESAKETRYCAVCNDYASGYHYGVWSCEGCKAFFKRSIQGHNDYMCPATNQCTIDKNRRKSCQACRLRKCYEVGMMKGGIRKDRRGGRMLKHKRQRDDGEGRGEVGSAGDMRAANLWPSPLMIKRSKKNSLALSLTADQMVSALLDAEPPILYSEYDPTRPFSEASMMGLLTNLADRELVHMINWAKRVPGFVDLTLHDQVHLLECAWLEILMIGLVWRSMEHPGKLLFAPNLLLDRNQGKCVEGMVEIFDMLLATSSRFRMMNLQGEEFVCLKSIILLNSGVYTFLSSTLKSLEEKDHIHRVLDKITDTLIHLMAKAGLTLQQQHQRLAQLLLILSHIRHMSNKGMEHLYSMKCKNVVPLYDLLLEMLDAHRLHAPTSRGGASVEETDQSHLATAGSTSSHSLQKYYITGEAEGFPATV

T2 sequence (Q92731 whole entry, species assumed): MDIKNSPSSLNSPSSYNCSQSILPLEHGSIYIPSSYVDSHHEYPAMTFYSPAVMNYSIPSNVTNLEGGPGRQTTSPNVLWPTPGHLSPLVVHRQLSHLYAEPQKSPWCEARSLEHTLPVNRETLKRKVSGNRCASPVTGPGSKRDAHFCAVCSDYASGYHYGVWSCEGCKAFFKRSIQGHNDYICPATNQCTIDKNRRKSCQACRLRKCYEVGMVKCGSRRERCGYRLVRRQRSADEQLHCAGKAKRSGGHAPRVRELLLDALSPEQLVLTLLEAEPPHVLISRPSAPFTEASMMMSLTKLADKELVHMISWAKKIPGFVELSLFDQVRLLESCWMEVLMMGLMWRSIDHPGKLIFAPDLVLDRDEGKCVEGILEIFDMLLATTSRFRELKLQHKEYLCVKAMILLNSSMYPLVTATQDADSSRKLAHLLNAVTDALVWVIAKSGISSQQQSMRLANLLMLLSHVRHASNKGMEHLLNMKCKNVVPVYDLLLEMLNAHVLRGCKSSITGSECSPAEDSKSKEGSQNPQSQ

N#CC(=C(/N)Sc1ccccc1N)/C(C#N)=C(/N)Sc1ccccc1N [UO 126]
effect of inhibitor on induction of ERK phosphorylation by E2 or DHT [1]: blocked

C[C@]12CC[C@@H]3c4ccc(O)cc4C[C@@H](CCCCCCCCC[S+]([O-])CCCC(F)(F)C(F)(F)F)[C@H]3[C@@H]1CC[C@@H]2O (some centres unmarked) [ICI 182,780]
effect of antagonist/inhibitor on the anti-apoptotic effect of E2 or DHT [2]: abrogated | effect of antagonist on the anti-apoptotic effect of DHT ([3]; antagonist pre-treatment 30 min, 10^−8 M DHT, etoposide): blocked | effect of antagonist on the anti-apoptotic effect of E2 ([3]; antagonist pre-treatment 30 min, 10^−8 M E2, etoposide): blocked

C[C@]12CCC(=O)C[C@@H]1CC[C@@H]1[C@@H]2CC[C@]2(C)[C@@H](O)CC[C@@H]12 [DHT, 5β-dihydrotestosterone]
prevention of apoptosis induced by etoposide, dexamethasone or TNFα ([4]; 10^−8 M steroid): prevented apoptosis | dose-dependent inhibition of etoposide-induced apoptosis compared with calvaria cells ([4]; not shown): identical results | time of maximal effect on phosphorylation of ERKs ([1]; MLO-Y4 cells): 5 min | anti-apoptotic effect in Src−/− fibroblasts (unlike Src+/+ wild type controls) [5]: unresponsive | prevention of apoptosis induced by etoposide, dexamethasone or TNFα ([3]; 10^−8 M steroid): prevented apoptosis | prevention of etoposide-induced apoptosis ([6]; HeLa transfected with ERβ): prevented apoptosis in a dose-dependent manner | effect on etoposide-induced apoptosis [7]: Neither E2 nor DHT (10^−12M to 10^−8 M) had an effect

293: ERβ-specific peptide SSIKDFPNLISLLSR (SEQ ID NO.: 2); two copies expressed fused to GAL4 DNA binding domain (also: two copies fused to GAL4 DNA binding domain) [compound 293]
effect of peptide on E2-induced ERE-Luc transcription [8]: blocked | effect of peptide on E2 effect on IL-6-Luc transcription [9]: blocked | effect of peptide on the anti-apoptotic activity of ERα (E2) [10]: did not have an effect | effect of peptide on the anti-apoptotic activity of ERβ (E2) ([6]; peptide co-transfected, 10^−8 M E2): did block

Cc1ccc(-c2nn(C(C)(C)C)c3ncnc(N)c23)cc1 [PP1]
effect of inhibitor on the anti-apoptotic effect of E2 and DHT ([4]; inhibitor 30 min prior to E2 or DHT, etoposide 6 hours): completely abrogated | effect of inhibitor on induction of ERK phosphorylation by E2 or DHT [1]: blocked
